Source: US9371337B2, “β-lactamase inhibitors” (The Regents of the University of California, priority 2011, dated 2016)
Where two headings read alike, the source gives them in different places.

Target: T1, AmpC β-lactamase (Escherichia coli, UniProt P00811)
T1 construct: made in house
Experiment: biochemical
Format: biochemical
Procedure: FIG. 18. Representative IC50 curves. […] IC50 curves were obtained by measuring rates (in duplicates) at different inhibitor concentrations (x-axis) and by determining the residual activity (y-axis, in percentage). IC50 values were determined by non-linear regression and Ki values calculated using GraphPad software assuming competitive inhibition.
Sulfonamidomethaneboronic acids were dissolved in 100% DMSO at a concentration of 100 mM; more diluted stocks were prepared as necessary. […] The enzyme was expressed and purified as described (Usher, K. C. et al., Biochemistry 1998, 37, 16082-16092) and CENTA was purchased from Tydock Pharma.
Kinetic measurements were run at room temperature in 50 mM sodium-cacodylate pH 6.5 in the presence of 0.01% Triton-X to prevent non-specific inhibition via compound aggregation. […] (Kettner, C. A. and Shenvi, A. B., J. Biol. Chem. 1984, 259, 15106-15114) Reactions were performed in 1 mL cuvettes with 60 μM CENTA and initiated by adding 1.2 nM enzyme. […] (Weston, G. S. et al., J. Med. Chem. 1998, 41, 4577-4586) The first 180 sec of each reaction were used to measure initial rates. IC50 values were obtained by fitting binding data to a sigmoidal dose-response equation using GraphPad Prism (GraphPad software, Inc). Ki values were determined by the use of Cheng-Prusoff equation. (Cheng, Y. and Prusoff, W. H., Biochem. Pharmacol. 1973, 22, 3099-3108)

T1 sequence (P00811 20-377): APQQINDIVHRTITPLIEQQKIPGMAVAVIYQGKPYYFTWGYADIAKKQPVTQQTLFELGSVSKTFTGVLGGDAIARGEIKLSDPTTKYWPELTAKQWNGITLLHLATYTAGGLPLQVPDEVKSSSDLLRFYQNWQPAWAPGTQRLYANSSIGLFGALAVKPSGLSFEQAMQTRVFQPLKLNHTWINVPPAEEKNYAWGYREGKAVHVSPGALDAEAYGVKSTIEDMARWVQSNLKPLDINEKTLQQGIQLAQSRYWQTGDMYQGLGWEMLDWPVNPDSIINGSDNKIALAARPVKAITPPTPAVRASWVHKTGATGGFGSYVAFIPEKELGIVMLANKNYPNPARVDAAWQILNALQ

## CS(=O)(=O)NCB(O)O [Compound 3, Pinacol(methanesulfonylamino)methaneboronate]
  Ligand efficiency: 0.91
Ki vs AmpC, Table 8
  Ki: 800 nM
Ratio of Ki values
  improvement of potency compared to the carboxamide analog: 23 fold
read-out: Ki
  Ki: 789 nM

## O=[N+]([O-])c1cccc(CS(=O)(=O)NCB(O)O)c1 [Compound 6]
Table 7, read-out: Ki Vs AmpC
  Ki: 189 nM

## COC(=O)c1ccc(CS(=O)(=O)NCB(O)O)cc1 [Compound 8]
Table 7, read-out: Ki Vs AmpC
  Ki: 120 nM

## CCOc1ccc2ccccc2c1S(=O)(=O)NCB(O)O [Compound 11, (2-Ethoxy-naphthalene-1-sulfonylamino)methaneboronic acid]
read-out: Ki
  Ki: 670 nM

## O=S(=O)(Cc1ccccc1)N[C@@H](Cc1ccccc1)B(O)O [Compound 16, (1R)-1-(phenylmethanesulfonylamino)-2-phenylethaneboronic acid]
Table 1, read-out: Ki
  Ki: 3720 nM
Table 7, read-out: Ki Vs AmpC
  Ki: 3720 nM

## O=C(Cc1cccs1)N[C@@H](Cc1cccc(C(=O)O)c1)B(O)O [Compound 17c, reference compound]
Table 1, read-out: Ki
  Ki: 39 nM

## C[C@H](NS(C)(=O)=O)B(O)O [GBS32, (1R)-1-(Methylsulfonylamino)-1-ethaneboronic acid]
Ki Vs AmpC, Table 7
  Ki: 650 nM

## C[C@H](NS(=O)(=O)Cc1ccccc1)B(O)O [GBS34, (1R)-1-(Phenylmethanesulfonylamino)-1-ethaneboronic acid]
Ki Vs AmpC, Table 7
  Ki: 310 nM

## O=C(Cc1cccs1)N[C@H](B(O)O)c1cccc(C(=O)O)c1 [SM23, reference compound]
Table 5
  Ligand efficiency: 0.55

## Pinacol(3-cyanopropane-1-sulfonylamino)methaneboronate [CR135]
Table 7, read-out: Ki Vs AmpC
  Ki: 200 nM

## Pinacol(isopropylsulfonylamino)methaneboronate [GBS22]
Table 7, read-out: Ki Vs AmpC
  Ki: 100 nM
